According to PubChem BioAssay (NCI):
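Cells were grown in 96-well plates and exposed to each compound for 48 hours at five concentrations; endpoints were interpolated linearly between bracketing concentrations, or set to the highest concentration if not reached. GI50: concentration for 50% inhibition of growth. TGI marks complete inhibition of growth.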

Key:
Experiment in all cases: DTP human tumour cell line panel, 48 h
T-47D breast = test system: T-47D breast
MDA-N = test system: MDA-N
MCF7 breast = test system: MCF7 breast
PC-3 prostate = test system: PC-3 prostate
RXF-631 renal = test system: RXF-631 renal
KM20L2 colon = test system: KM20L2 colon

Structure (SMILES) | TGI (T-47D breast) [µM] | TGI (MDA-N) [µM] | TGI (MCF7 breast) [µM] | TGI (PC-3 prostate) [µM] | TGI (RXF-631 renal) [µM] | TGI (KM20L2 colon) [µM] | GI50 (MCF7 breast) [µM] | GI50 (PC-3 prostate) [µM] | GI50 (T-47D breast) [µM]
NC1=NC(c2ccc(Cl)cc2)N(c2ccc(S(N)(=O)=O)cc2)C(N)=N1 (centres undefined) | > 100 | > 100 | > 100 | > 100 |  |  |  |  | 
NC(=O)c1ccccc1NC(=O)C(=O)Cc1nc2ccccc2[nH]c1=O |  |  |  |  | > 100 | > 100 |  |  | 
CC(=O)OC1=CC2=CC[C@H]3[C@@H]4CCC(=O)[C@@]4(C)CC(=O)[C@]3(S)[C@@]2(C)CC1 | > 100 | > 100 | > 100 | > 100 |  |  |  |  | 
Clc1ccc(-c2csc(Nc3cccc(-c4csc(-c5ccccc5)n4)c3)n2)cc1 |  |  | > 50 | 17 |  |  | 10.3 | 5.71 | 
CC(=O)NC1C(OCc2ccccc2)OC(CO)C(O)C1OC(C)C(=O)N[C@@H](C)C(=O)N[C@H](CCC(=O)OCCNc1c2ccccc2nc2cccc([N+](=O)[O-])c12)C(N)=O (some centres undefined) |  |  |  |  |  | 0.00247 |  |  | 
COC1=C(C)C(=O)c2c(c(CCCl)c3n2CCC3O)C1=O (centres undefined) | > 82.9 |  | 1.9 | 10.8 |  |  | 0.125 | 1.42 | 16.3
COc1cc(-c2cc(-c3ccc(Nc4ccnc5cc(Cl)ccc45)cc3)nc(N3CCOCC3)n2)cc(OC)c1OC | 4.65 |  | 3.26 | 3.69 |  |  | 0.755 | 1.78 | 2.06
CN(C)C(=Nc1nc(=[N+](C)C)ss1)N(C)C |  |  |  |  | > 100 | > 100 |  |  | 
COC(=O)C1OC2(CCCC3CC32)O[C@H]1C(=O)OC (some centres undefined) |  | > 100 | > 100 | > 100 |  |  |  |  | 
O=C1NC(=O)C(=Nc2cccc3c(=O)[nH][nH]c(=O)c23)C(c2nc3ccccc3s2)C1=O (centres undefined) |  |  |  |  | > 100 | > 100 |  |  | 
Cc1cn(C2C=CC(CO)O2)c(=O)[nH]c1=O (centres undefined) | > 1000 | > 1000 | > 1000 | > 1000 |  |  |  |  | 
CCN(CC)c1ccc(N=Nc2ccc([N+](=O)[O-])cc2OC(=O)/C=C/c2ccccc2)c(OC(=O)/C=C/c2ccccc2)c1 |  |  |  |  | > 100 |  |  |  | 
Cc1ccc(/C=C2\CN(C(=O)C(Cl)Cl)C/C(=C\c3ccc(C)cc3)C2=O)cc1 |  |  | 0.836 | 0.672 |  |  | 0.0546 | 0.209 | 
COc1ccc2c(C3(c4cn(C)c5cc(OC)ccc45)C(=O)Nc4ccc(Cl)cc43)cn(C)c2c1 | > 100 |  | > 100 | > 100 |  |  | 3.09 | 3.65 | 3.89
CC1(C)O[C@@H](CCl)C[C@H](C#N)O1 |  |  |  |  |  | > 100 |  |  | 
COc1ccccc1C1=C(Nc2ccccc2)C(=O)NC1=O | > 25 |  | > 25 | > 25 |  |  | > 25 | > 25 | > 25
Cc1cccc(C(C)C)c1N1C(=O)C(=O)C(c2nc3ccccc3o2)C(=O)C1=O |  |  |  |  | > 100 | > 100 |  |  | 
N[C@@H]1C(=O)N2C(C(=O)OC(c3ccccc3)c3ccccc3)=C(CCl)CS[C@H]12 | > 100 |  | > 100 | > 100 |  |  | 33.6 | 32.4 | 46
Nc1cc(O)ccc1N=Nc1ccc(-c2nc3ccccc3[nH]2)cc1 | > 100 |  |  | > 100 |  |  |  | 20.4 | 29.9
O=C(/C=C/c1ccco1)c1ccc(NCc2nc3ccccc3[nH]2)cc1 |  |  |  |  |  | 35.1 |  |  | 

Structure (SMILES) | TGI (T-47D breast) [µM] | TGI (MDA-N) [µM] | TGI (MCF7 breast) [µM] | TGI (PC-3 prostate) [µM] | TGI (RXF-631 renal) [µM] | TGI (KM20L2 colon) [µM] | GI50 (MCF7 breast) [µM] | GI50 (PC-3 prostate) [µM] | GI50 (T-47D breast) [µM]
O=C(CN1CCN(c2cc3c(cc2F)c(=O)c(C(=O)O)cn3C2CC2)CC1)Nc1nc(-c2ccc(Cl)cc2)cs1 | > 100 |  | 36.1 | 29.9 |  |  | 3.06 | 3.36 | 3.58
O=[N+]([O-])c1ccc(-c2noc(-c3ccc(Cl)cc3)c2C2=NCCN2)cc1 |  |  |  |  |  | > 100 |  |  | 
O=C(O)c1cn(C2CC2)c2cc(N3CCN(C(=O)Nc4nc(-c5ccccc5)cs4)CC3)c(F)cc2c1=O | > 100 |  | > 100 | > 100 |  |  | 1.72 | 1.88 | 1.74
CC1=CC(=O)C(C(C)C)=CC1=Nc1cc(Br)c(O)c(Br)c1 | 21.2 |  | 17.7 |  |  |  | 4.27 |  | 5.74
CCC/C=C1\CCC(CN(C)C)C1=O (centres undefined) |  |  |  |  |  | 27.2 |  |  | 
CCOC(=O)c1c(C)n(Cc2ccccc2)c2c1cc(O)c1[nH]c(Cc3ccccc3)nc12 | > 36.6 |  | > 53.1 | > 100 |  |  | 7.4 | 7.88 | 9.74
O=[N+]([O-])c1ccc(Cl)c(C2CC(c3cccc4ccccc34)=Nc3ccccc3S2)c1 (centres undefined) |  |  |  |  | > 100 | > 100 |  |  | 
COc1cc2c(cc1OC)C(Sc1ccc(SC)cc1)c1c(nc(N)c(C#N)c1N)O2 (centres undefined) | 4.26 |  | 3.54 | 3.06 |  |  | 1.1 | 1.63 | 1.62
NC(=O)c1c([N+](=O)[O-])cc(C(F)(F)F)cc1[N+](=O)[O-] |  |  |  |  |  | 93.5 |  |  | 
S=c1[nH]nc(Cc2ccccc2)c(=S)[nH]1 | 75.4 | > 100 | > 100 | 88.2 | > 100 |  |  |  | 
CCOc1cc(Br)c(C(C)NC(=O)c2cccc(OC)c2)cc1OCC (centres undefined) | > 100 |  | > 100 | > 100 |  |  | 5.38 | 12.6 | 9.53
Cc1nnc2c3nnc(C)n3c3ccccc3n12 |  |  |  |  |  | > 100 |  |  | 
O=C(CC1(O)C(=O)Nc2ccc(Br)cc21)c1ccc(Cl)cc1Cl (centres undefined) |  |  |  |  | > 100 | > 100 |  |  | 
CCC(c1ccc(OC)cc1)C(CC)c1ccc(O)c(CN2CCN(C)CC2)c1 (centres undefined) | 8.35 |  | 5.09 | 21.2 |  |  | 2.42 | 6.73 | 2.57
COC(=O)/C(=N/Nc1cccc(Cl)c1)C(C(=O)C(=O)Nc1cccc(Cl)c1C)c1nc2ccccc2nc1C (centres undefined) |  |  |  |  |  | > 100 |  |  | 
S=C(Nc1ccc(N=Nc2ccccc2)cc1)SCc1ccccc1 | > 100 |  | 64.6 | 30.6 |  |  |  |  | 
FC(F)(F)c1ccc(-c2cnc(-n3cc(COCCN4CCCCC4)nn3)nc2NC2CCCCCC2)cc1 | 9.21 |  | 7.4 | 6.18 |  |  | 3.21 | 2.93 | 4.12
CC(=O)c1c(CN(C)c2ccccc2)n([O-])c2ccccc2[n+]1=O |  |  | 63 | 44.3 |  |  | 15 | 11.7 | 
Cc1cc(-c2ccccc2)nc(Nc2nc3ccccc3o2)n1 |  |  |  |  |  | > 100 |  |  | 
CCOc1ccc2c(c1)[n+]([O-])c(-c1ccc(Br)cc1)c(N)[n+]2[O-] |  |  |  |  | > 100 | > 100 |  |  | 
